Values joined by “and” are separate entries in the source; they are usually repeats but may differ in a detail not shown here. Equal values may be shown once. Read-outs that look alike come from different tables or passages of the source.
Columns and labels:
Type in all cases: cell-based
Fusarium culmorum = experiment: in vitro-Test with Fusarium culmorum (microtiter growth inhibition)
Description: (§1) The degree of efficacy expressed in % is denoted: 0% means an efficacy, which corresponds to that of the control, while an efficacy of 100% means that no disease is observed.
(§2) If the actual fungicidal activity exceeds the calculated value, then the activity of the combination is super-additive, i.e. a synergistic effect exists. In this case, the efficacy, which was actually observed, must be greater than the value for the expected efficacy (E), that was calculated from the abovementioned formula.
(§3) Example: In Vitro-Test with Fungal Microorganisms
(§4) Wells of 96-well microtiter plates are filled with 10 μl of a preparation of test compound or compound combination in methanol+emulsifier alkylaryl-polyglycol-ether. Thereafter, the solvent is evaporated in a hood. At the next step, 100 μl of liquid potato dextrose medium is given into each well, that has been amended with an appropriate concentration of spores or mycelium suspension of the test fungus.
(§5) With the aid of a photometer, the extinction in all wells is measured at the wavelength of 620 nm.
(§6) The microtiter plates are incubated at 20° C. and 85% relative humidity. The inhibition of growth is determined again photometrically 3-5 days after the application. Efficacy is calculated in relation to the untreated control, 0% efficacy means fungal growth as high as in untreated control while 100% efficacy means no fungal growth is measured.

Cordana musae = experiment: in vitro-Test with Cordana musae (microtiter growth inhibition); conditions: single substance
Description: as §1, §2, §3, §4, §5, §6

Alternaria alternate = experiment: in vitro-Test with Alternaria alternate (microtiter growth inhibition); conditions: for inhibition of growth at 20 ppm / inhibition of growth at 0.8 ppm / inhibition of growth at 0.008 ppm / inhibition of growth at 0.04 ppm / inhibition of growth at 1 ppm / inhibition of growth at 0.2 ppm / inhibition of growth at 4 ppm: Alternaria
Description: as §1, §2, §3, §4, §5, §6

Cercospora beticola = experiment: in vitro-Test with Cercospora beticola (microtiter growth inhibition); conditions: alone
Description: as §1, §2, §3, §4, §5, §6

[1] = system: Ustilago segetum var. avenae; experiment: in vitro-Test with Ustilago segetum var. avenae (microtiter growth inhibition); conditions: single compound
Description: as §1, §2, §3, §4, §5, §6

Diaporthe citri = experiment: in vitro-Test with Diaporthe citri (microtiter growth inhibition); conditions: applied alone
Description: as §2, §3, §4, §5, §6

Botrytis cinerea = experiment: in vitro-Test with Botrytis cinerea (microtiter growth inhibition); conditions: applied alone
Description: as §1, §2, §3, §4, §5, §6

[2] = Fusarium culmorum, read-out: Efficacy
[3] = Neocordana musae, 0.8 ppm, read-out: Efficacy
[4] = Neocordana musae, read-out: Efficacy
[5] = applied alone, read-out: Efficacy
[6] = Cercospora beticola, read-out: Efficacy %
[7] = Diaporthe citri, 0.04 ppm, read-out: Efficacy
[8] = Diaporthe citri, 1.0 ppm, read-out: Efficacy
[9] = Fusarium culmorum, 0.04 ppm, read-out: Efficacy
[10] = Fusarium culmorum, 1.0 ppm, read-out: Efficacy
[11] = 0.008 ppm, alone, read-out: Efficacy %
[12] = 0.04 ppm, alone, read-out: Efficacy %
[13] = 1.0 ppm, alone, read-out: Efficacy %
[14] = applied alone, 0.008 ppm, read-out: Efficacy
[15] = applied alone, 0.2 ppm, read-out: Efficacy
[16] = Cercospora beticola, 0.008 ppm, read-out: Efficacy %
[17] = Cercospora beticola, 1.0 ppm, read-out: Efficacy %
[18] = Diaporthe citri, read-out: Efficacy
[19] = 4 ppm, alone, read-out: Efficacy %

COc1cc(C)c(C(=O)c2c(OC)ccc(Br)c2C)c(OC)c1OC [Compound 15.016, metrafenone]
inhibition of growth at 0.8 ppm (Fusarium culmorum; [2]): 0% | inhibition of growth at 4 ppm (Fusarium culmorum; [2]): 0% | inhibition of growth at 20 ppm (Fusarium culmorum; [2]): 0% | inhibition of growth at 0.8 ppm (Cordana musae; [3]): 0% | inhibition of growth at 20 ppm (Cordana musae; [4]): 22%

O=C1C2CC=CCC2C(=O)N1SC(Cl)(Cl)Cl (centres unmarked) [captan]
inhibition of growth at 0.8 ppm (Fusarium culmorum; [2]): 2% | inhibition of growth at 20 ppm (Fusarium culmorum; [2]): 5% | inhibition of growth at 20 ppm (Alternaria alternate; alone, read-out: Efficacy %): 83% | inhibition of growth at 0.8 ppm (Alternaria alternate; [5]): 10% | inhibition of growth at 20 ppm (Alternaria alternate; [5]): 100% | Efficacy (Alternaria alternate; applied alone, 4 ppm): 100% | inhibition of growth at 4 ppm (Cercospora beticola; [6]): 73% | inhibition of growth at 4 ppm (Cordana musae; [4]): 2% | Efficacy (Cordana musae; 0.8 ppm): 0%

CC1COC(Cn2cncn2)(c2ccc(Oc3ccc(Cl)cc3)cc2Cl)O1 (centres unmarked) [difenoconazole]
inhibition of growth at 0.04 ppm ([1]; 0.04 ppm, read-out: Efficacy %): 4% | inhibition of growth at 0.2 ppm ([1]; 0.2 ppm, read-out: Efficacy %): 70% | inhibition of growth at 1 ppm ([1]; 1.0 ppm, read-out: Efficacy %): 100% | inhibition of growth at 0.04 ppm (Diaporthe citri; [7]): 13% | inhibition of growth at 1 ppm (Diaporthe citri; [8]): 88% | Efficacy (Diaporthe citri; 0.008 ppm): 0% | inhibition of growth at 0.008 ppm (Fusarium culmorum; Fusarium culmorum, 0.008 ppm, read-out: Efficacy): 3% | inhibition of growth at 0.04 ppm (Fusarium culmorum; [9]): 8% | inhibition of growth at 0.2 ppm (Fusarium culmorum; Fusarium culmorum, 0.2 ppm, read-out: Efficacy): 0% | inhibition of growth at 1 ppm (Fusarium culmorum; [10]): 0% | inhibition of growth at 0.008 ppm (Alternaria alternate; [11]): 8% | inhibition of growth at 0.04 ppm (Alternaria alternate; [12]): 4% | inhibition of growth at 1 ppm (Alternaria alternate; [13]): 98% | inhibition of growth at 0.008 ppm (Alternaria alternate; [14]): 11% | inhibition of growth at 0.2 ppm (Alternaria alternate; [15]): 3% | inhibition of growth at 0.008 ppm (Cercospora beticola; [16]): 9% | inhibition of growth at 0.2 ppm (Cercospora beticola; [6]): 68% | inhibition of growth at 1 ppm (Cercospora beticola; [17]): 100% | inhibition of growth at 0.008 ppm (Cordana musae; Neocordana musae, 0.008 ppm, read-out: Efficacy): 0% | inhibition of growth at 1 ppm (Cordana musae; Neocordana musae, 1.0 ppm, read-out: Efficacy): 42%

N#Cc1sc2c(=O)c3ccccc3c(=O)c=2sc1C#N [dithianon]
inhibition of growth at 0.8 ppm (Diaporthe citri; [18]): 34% | inhibition of growth at 4 ppm (Diaporthe citri; [18]): 98% | inhibition of growth at 20 ppm (Diaporthe citri; [18]): 97% | inhibition of growth at 0.8 ppm (Fusarium culmorum; [2]): 0% | inhibition of growth at 4 ppm (Fusarium culmorum; [2]): 39% | inhibition of growth at 20 ppm (Fusarium culmorum; [2]): 100% | inhibition of growth at 0.8 ppm (Alternaria alternate; alone, read-out: Efficacy %): 0% | inhibition of growth at 4 ppm (Alternaria alternate; [19]): 71% | inhibition of growth at 20 ppm (Alternaria alternate; alone, read-out: Efficacy %): 100% | inhibition of growth at 4 ppm (Cercospora beticola; [6]): 99% | inhibition of growth at 20 ppm (Cercospora beticola; [6]): 98% | inhibition of growth at 0.8 ppm (Cordana musae; [3]): 9% | inhibition of growth at 4 ppm (Cordana musae; [4]): 99% | inhibition of growth at 20 ppm (Cordana musae; [4]): 98%

COc1ccnc(C(=O)N[C@H]2COC(=O)[C@H](Cc3ccccc3)[C@@H](OC(=O)C(C)C)[C@H](C)OC2=O)c1OCOC(=O)C(C)C [fenpicoxamid]
Efficacy (Diaporthe citri; 0.04 ppm): 0% | Efficacy (Diaporthe citri; 0.2 ppm): 5% and 0% | Efficacy (Diaporthe citri; 1.0 ppm): 87% and 73% and 75% | Efficacy (Diaporthe citri; 5.0 ppm): 94% and 93% and 90% | Efficacy (Fusarium culmorum; 0.04 ppm): 0% | Efficacy (Fusarium culmorum; 0.2 ppm): 0% | Efficacy (Fusarium culmorum; 1.0 ppm): 0% | Efficacy (Fusarium culmorum; 5.0 ppm): 0% | Efficacy % (Alternaria alternate; 0.2 ppm, alone): 10% and 4% | Efficacy % (Alternaria alternate; 5.0 ppm, alone): 80% and 81% | Efficacy (Alternaria alternate; applied alone, 5.0 ppm): 64% | Efficacy % (Cercospora beticola; 1.0 ppm): 74% and 58% and 42% | Efficacy % (Cercospora beticola; 5.0 ppm): 86% and 78% | Efficacy (Cordana musae; 1.0 ppm): 50% | Efficacy (Cordana musae; 5.0 ppm): 74%

O=C(NCCc1ncc(C(F)(F)F)cc1Cl)c1ccccc1C(F)(F)F [fluopyram]
inhibition of growth at 4 ppm (Diaporthe citri; [18]): 0% | inhibition of growth at 20 ppm (Diaporthe citri; [18]): 26% | inhibition of growth at 0.8 ppm (Fusarium culmorum; [2]): 1% | inhibition of growth at 4 ppm (Fusarium culmorum; [2]): 0% | inhibition of growth at 20 ppm (Fusarium culmorum; [2]): 3% | inhibition of growth at 0.8 ppm (Alternaria alternate; alone, read-out: Efficacy %): 77% | inhibition of growth at 4 ppm (Alternaria alternate; [19]): 94% | inhibition of growth at 0.8 ppm (Alternaria alternate; [5]): 81% | inhibition of growth at 4 ppm (Alternaria alternate; applied alone, 4 ppm, read-out: Efficacy): 85% | inhibition of growth at 20 ppm (Alternaria alternate; [5]): 99% | inhibition of growth at 20 ppm (Cercospora beticola; [6]): 17% | inhibition of growth at 0.8 ppm (Cordana musae; [3]): 0% | inhibition of growth at 4 ppm (Cordana musae; [4]): 5% | inhibition of growth at 20 ppm (Cordana musae; [4]): 20%

CC(C)c1ccc(Cl)cc1CN(C(=O)c1c(C(F)F)nn(C)c1F)C1CC1 [isoflucypram]
Efficacy % ([1]; 0.008 ppm): 0% | Efficacy % ([1]; 0.04 ppm): 45% | Efficacy % ([1]; 0.2 ppm): 100% | Efficacy % ([1]; 1.0 ppm): 100% | Efficacy (Diaporthe citri; 0.008 ppm): 0% | Efficacy (Diaporthe citri; 0.04 ppm): 0% | Efficacy (Diaporthe citri; 0.2 ppm): 0% | Efficacy (Diaporthe citri; 1.0 ppm): 49% and 41% | Efficacy (Fusarium culmorum; 0.008 ppm): 0% | Efficacy (Fusarium culmorum; 0.04 ppm): 0% | Efficacy (Fusarium culmorum; 0.2 ppm): 0% | Efficacy (Fusarium culmorum; 1.0 ppm): 0% | Efficacy % (Alternaria alternate; 0.008 ppm, alone): 44% and 41% | Efficacy % (Alternaria alternate; 0.04 ppm, alone): 69% and 76% | Efficacy % (Alternaria alternate; 0.2 ppm, alone): 85% and 81% | Efficacy % (Alternaria alternate; 1.0 ppm, alone): 74% | Efficacy (Alternaria alternate; applied alone, 0.008 ppm): 53% | Efficacy (Alternaria alternate; applied alone, 0.04 ppm): 71% | Efficacy (Alternaria alternate; applied alone, 0.2 ppm): 73% | Efficacy % (Cercospora beticola; 0.008 ppm): 11% | Efficacy % (Cercospora beticola; 0.04 ppm): 16% | Efficacy % (Cercospora beticola; 1.0 ppm): 35% and 39% | Efficacy (Cordana musae; 0.008 ppm): 0% | Efficacy (Cordana musae; 0.04 ppm): 10% and 12% | Efficacy (Cordana musae; 0.2 ppm): 0% | Efficacy (Cordana musae; 1.0 ppm): 18% and 8%

CCCN(CC)CC1COC2(CCC(C(C)(C)C)CC2)O1 (centres unmarked) [spiroxamine]
inhibition of growth at 0.8 ppm ([1]; 0.8 ppm, read-out: Efficacy %): 0% | inhibition of growth at 4 ppm ([1]; 4 ppm, read-out: Efficacy %): 0% | inhibition of growth at 20 ppm ([1]; 20 ppm, read-out: Efficacy %): 87% | inhibition of growth at 0.8 ppm (Diaporthe citri; [18]): 0% | inhibition of growth at 4 ppm (Diaporthe citri; [18]): 0% | inhibition of growth at 20 ppm (Diaporthe citri; [18]): 6% | Efficacy (Botrytis cinerea; 0.8 ppm): 5% | Efficacy (Botrytis cinerea; 4 ppm): 4% | inhibition of growth at 0.8 ppm (Fusarium culmorum; [2]): 0% | inhibition of growth at 4 ppm (Fusarium culmorum; [2]): 0% | inhibition of growth at 20 ppm (Fusarium culmorum; [2]): 2% | inhibition of growth at 0.8 ppm (Alternaria alternate; alone, read-out: Efficacy %): 1% | inhibition of growth at 4 ppm (Alternaria alternate; [19]): 1% | inhibition of growth at 4 ppm (Cordana musae; [4]): 0% | inhibition of growth at 20 ppm (Cordana musae; [4]): 4%

CC(C)(C)C(O)(CCc1ccc(Cl)cc1)Cn1cncn1 (centres unmarked) [tebuconazole]
inhibition of growth at 0.04 ppm (Diaporthe citri; [7]): 47% | inhibition of growth at 0.2 ppm (Diaporthe citri; Diaporthe citri, 0.2 ppm, read-out: Efficacy): 96% | inhibition of growth at 1 ppm (Diaporthe citri; [8]): 98% | Efficacy (Botrytis cinerea; 0.008 ppm): 0% | Efficacy (Botrytis cinerea; 0.04 ppm): 8% | Efficacy (Botrytis cinerea; 0.2 ppm): 20% | Efficacy (Botrytis cinerea; 1.0 ppm): 100% | inhibition of growth at 0.04 ppm (Fusarium culmorum; [9]): 0% | inhibition of growth at 1 ppm (Fusarium culmorum; [10]): 99% | inhibition of growth at 0.008 ppm (Alternaria alternate; [11]): 11% | inhibition of growth at 0.04 ppm (Alternaria alternate; [12]): 9% | inhibition of growth at 0.2 ppm (Alternaria alternate; 0.2 ppm, alone, read-out: Efficacy %): 32% | inhibition of growth at 1 ppm (Alternaria alternate; [13]): 98% | inhibition of growth at 0.008 ppm (Alternaria alternate; [14]): 0% | inhibition of growth at 0.04 ppm (Alternaria alternate; applied alone, 0.04 ppm, read-out: Efficacy): 14% | inhibition of growth at 0.2 ppm (Alternaria alternate; [15]): 48% | inhibition of growth at 1 ppm (Alternaria alternate; applied alone, 1.0 ppm, read-out: Efficacy): 99% | inhibition of growth at 0.008 ppm (Cercospora beticola; [16]): 0% | inhibition of growth at 0.04 ppm (Cercospora beticola; Cercospora beticola, 0.04 ppm, read-out: Efficacy %): 22% | inhibition of growth at 0.2 ppm (Cercospora beticola; [6]): 83% | inhibition of growth at 1 ppm (Cercospora beticola; [17]): 100% | inhibition of growth at 0.2 ppm (Cordana musae; Neocordana musae, 0.2 ppm, read-out: Efficacy): 2%

Source: US20230165252A1, “ACTIVE COMPOUND COMBINATIONS” (Bayer Aktiengesellschaft, priority 2020, published 2023)
